What was measured:
MV4-11 AML SQ xenografts = format: in vivo, mouse; details: MV4-11 xenograft, 5 mg/kg or 10 mg/kg orally once daily for 20 days
Description: Human MV4-11 acute myeloid leukemia (AML) cancer cells (5×10^6) that have FLT-ITD mutations were resuspended in serum-free RPMI1640 medium and Matrigel (ration of 1:1) and subcutaneously injected into the flank of 5-6 weeks old female NOD/SCID/IL-2rg(ko)(NSG). When palpable tumor sizes reached at approximately 50 mm^3, mice were divided into three groups (vehicle=9, 5 mg/kg dose group=8, 10 dose mg/kg group=8). Then, S enantiomer was orally administered at 5 mg/kg or 10 mg/kg with vehicle (10% DMSO+30% Solutol+60% saline), once daily for 20 days. Tumor volumes were calculated by the formula 1/2a×b^2, where a is the long diameter, and b is the short diameter. Tumor volumes correlate with tumor weights. The statistical significance of group differences was analyzed using a Student's t-test with the two-tailed distribution. P values less than 0.05 were considered statistically significant.

MOLM-13 AML cells = assay: MTS cell viability assay; format: cell-based
Description: IC50 Determinations for Ovarian, Liver, Pancreatic, CML, AML Cancer Cell Lines (See e.g. FIGS. 4, 6A-6C, 21, 22A, 22B, 23, 24A-24C, 25A, 25B and 34): MTS assays were performed for cell viability. SKOV3 ovarian cancer, Huh-7 hepatocellular carcinoma, MIA-PaCa2 pancreatic cancer, KCL-22 CML, T315I mutant KCL-22 CML, MOLM-13 AML and MV4-11 AML cells were seeded in 96-well plates (5000 cells/well for solid tumors, 10000 cells/well for blood tumors), incubated overnight at 37° C. in 5% CO2, and exposed to racemic ETP69 or S enantiomer in a dose-dependent manner for 48 h. Dimethyl sulfoxide (DMSO) was used as the vehicle control. Viable cell numbers were determined by tetrazolium conversion to its formazan dye and absorbance was measured at 490 nm using an automated ELISA plate reader. Each experiment was performed in quadruplicate.

With CN1C(=O)[C@@]23C[C@](C)(C#N)[C@H](c4ccc5c(c4)OCO5)N2C(=O)[C@]1(C)SS3 (single isomer, unassigned) [ETP417] the toxicity symptoms (MV4-11 AML SQ xenografts) was “no observable toxicity symptoms”.
In the case of CN1C(=O)[C@@]23C[C@](C)(C#N)[C@H](c4ccc5c(c4)OCO5)N2C(=O)[C@]1(C)SS3 [(S) enantiomer of ETP69, (3S,6S,7S,8aS)-6-(benzo[d][1,3]dioxol-5-yl)-2,3,7-trimethyl-1,4-dioxohexahydro-6H-3,8a-epidithiopyrrolo[1,2-a]pyrazine-7-carbonitrile], the “increase in inhibitory capacity when compared to the (R) enantiomer” value (MOLM-13 AML cells) is reported as roughly 4 fold.

— patent US9856273B2, “ETP derivatives” (priority 2012, dated 2018)
